Assay results: patent US7705016B2, “Regulation of food intake by modulation of long-chain fatty acyl-CoA levels in the hypothalamus” (Albert Einstein College of Medicine of Yeshiva University, priority 2003, dated 2010)
Entries after “also recorded” stand apart in the source; their conditions may differ.

Molecular target: T1, hypothalamic CPT1 (Rattus norvegicus, UniProt P32198)
T1 sequence (P32198 1-773): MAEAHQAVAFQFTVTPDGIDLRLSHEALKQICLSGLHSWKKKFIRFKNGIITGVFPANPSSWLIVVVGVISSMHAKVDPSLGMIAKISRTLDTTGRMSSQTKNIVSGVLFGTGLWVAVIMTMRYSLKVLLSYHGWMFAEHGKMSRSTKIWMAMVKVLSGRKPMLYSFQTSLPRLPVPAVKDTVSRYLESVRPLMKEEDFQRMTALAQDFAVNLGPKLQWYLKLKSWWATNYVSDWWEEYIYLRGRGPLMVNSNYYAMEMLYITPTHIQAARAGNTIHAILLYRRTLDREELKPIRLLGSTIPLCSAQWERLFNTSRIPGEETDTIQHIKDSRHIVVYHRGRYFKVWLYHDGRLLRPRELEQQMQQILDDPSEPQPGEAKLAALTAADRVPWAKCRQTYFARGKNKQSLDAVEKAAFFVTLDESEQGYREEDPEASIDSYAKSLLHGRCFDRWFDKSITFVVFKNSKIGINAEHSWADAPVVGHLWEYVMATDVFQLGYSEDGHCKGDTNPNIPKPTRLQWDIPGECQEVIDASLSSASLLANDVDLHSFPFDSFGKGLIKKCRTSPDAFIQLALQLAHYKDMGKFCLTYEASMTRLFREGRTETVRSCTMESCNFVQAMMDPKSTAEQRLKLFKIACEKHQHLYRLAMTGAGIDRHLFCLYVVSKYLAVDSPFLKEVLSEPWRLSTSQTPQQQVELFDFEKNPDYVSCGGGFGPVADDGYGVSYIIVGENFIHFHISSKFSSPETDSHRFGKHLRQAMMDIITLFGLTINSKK
Experiment: Food intake after ICV bolus of CPT1 antagonists
Assay type: in vivo
Parameters: CPT1 activity was measured in the particulate fraction of protein extracts from animals treated with ICV control injections; from tissue; host or cells: hypothalamus (arcuate nucleus) of male Sprague-Dawley rats, in vivo or ex vivo
Conditions: for decrease in daily food intake: 24-48 h after single ICV administration, ST 1326 high dose; for change in food intake from baseline: ST 1326 high dose (25 pmoles); for effect on food intake / feeding behavior: single ICV injection
Description: Hypothalamic inhibition of CPT1 decreases food intake. First we examined whether central administration of molecular and pharmacological antagonists of CPT1 modulates feeding behavior in conscious rats (FIG. 3). […] Food intake was monitored in metabolic cages before and up to 72 h after the ICV injections (Obici et al., 2002a). […] The marked effect of ICV CPT1L-Ribo on food intake was significant when compared with either control vector or with an unrelated control ribozyme (FIG. 3c). […] The anorectic effect of central CPT1 inhibition lasted for at least 48 h following a single ICV administration. These decreases in food intake were significant compared with both baseline and vehicle/control (FIG. 3a-e). The changes from baseline induced by CPT1 inhibition were statistically significant at 24 h (−17.6±2.0 g and −12.4±3.9 g), and 48 h (−13.4±1.8 g and −7.8±3.8 g) following ICV administration of CP1L-Ribo and high dose ST 1326, respectively (FIGS. 3b and e). This represented a ˜50% decrease in daily food intake, which returned toward baseline values by 72 h.
Animal preparation for in vivo experiments. We studied ninety-three 10-week old male Sprague-Dawley rats (Charles River Breeding Laboratories, Wilmington, Mass.). Rats were housed in individual cages and subjected to a standard light-dark cycle. Three weeks prior to the in vivo studies, we placed a chronic catheter in the third cerebral ventricle by stereotaxic surgery (Obici et al., 2002a; Obici et al., 2001; Liu et al., 1998). One week before the pancreatic-insulin clamp protocols, we placed additional catheters in the right internal jugular and left carotid artery (Obici et al., 2001; Liu et al., 1998). All ICV solutions were dissolved in artificial cerebral spinal fluid (aCSF). Food intake was monitored daily.
Effect of central inhibition of CPT1 and food intake. We examined the effects of ICV CPT1L-Ribo and ST 1326 on food intake. Three-hours before the start of the dark cycle, CPT1L-Ribo or vector control, ST 1326 or ST 1340 was injected as a bolus via indwelling catheters implanted in the third cerebral ventricle. In the feeding studies, rats received a single bolus injection of 25 pmoles of ST1340 or two different doses (5 and 25 pmoles) of ST1326. Rats were adapted to the metabolic cages and their daily food intake had been constant (changes <10%) for a minimum of three consecutive days preceding the ICV injections. Food intake was continuously monitored for the following 72 h.

[1] = 24 h after single ICV administration
[2] = 48 h after single ICV administration

Molecule	inhibition of daily food intake (5 pmoles single ICV injection)	food intake on day 3 compared to control group (25 pmoles (high dose) single ICV injection, day 3)	inhibition of daily food intake (25 pmoles single ICV injection)	decrease in daily food intake	change in food intake from baseline [1]	change in food intake from baseline [2]	effect on food intake / feeding behavior	average food intake (first night following ICV administration)
CCCCCCCCCCCCCCNC(=O)N[C@H](CC(=O)[O-])C[N+](C)(C)C [ST1326, (R)-N-(tetradecylcarbamoyl)-aminocarnitine]	statistically significant on day 1 and 2	significantly lowered food intake	statistically significant on day 1 and 2	~50%	-12.4 ± 3.9 g	-7.8 ± 3.8 g	markedly inhibited food intake	–
CPT1L-Ribo: plasmid (pTarget, CMV promoter) expressing a hammerhead ribozyme that specifically cleaves rat CPT1L mRNA, complexed to PEI for ICV injection (DNA CUGUACCAAAGAGCUGUAGAGUCCGUGAGGACGAAACGCCGCUCACAAUG)	–	–	–	~50%	-17.6 ± 2.0 g	-13.4 ± 1.8 g	significantly suppressed from day 1 to day 3; also recorded: rapid onset of anorexia	13.0±1.9 gr./day
